According to patent US20230021483A1, “[…] […] METHOD AND CLASSIFICATION OF PHARMACEUTICAL COMPONENTS BY USING TRANSCRIPTOMES” (National Institutes of Biomedical Innovation, Health and …, priority 2016, published 2023):

Test system: adjuvant-associated biological themes in LV, SP, LN
How it was run: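 Per-mouse whole-organ transcriptomes; genes with eij/ei(c)>2.0 tested for theme enrichment via TargetMine (GO, KEGG, Reactome, others), Fisher's exact test, Holm-Bonferroni correction. Themes shared by all three mice kept at p<0.05, using the smallest p. Score per adjuvant-associated term = Σ−log(p) of matching themes.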

D35: A class CpG ODN (5′-GGTGCATCGATGCAGGGGGG-3′), TLR9 ligand (DNA GGTGCATCGATGCAGGGGGG; chemistry not given here)
tissue damage-associated annotations (cell death, wounding) in LNs (LN, i.d., fold change >2): did not induce cell death and wounding in LNs
GO annotation: Cytokine-cytokine receptor interaction (Term: cytokine) (LV, ID): 0
GO annotation: Cytokine-cytokine receptor interaction|Endocytosis (Term: cytokine) (LV, ID): 5.2
GO annotation: I-kappaB kinase/NF-kappaB signaling (Term: NF-kappa B signaling pathway) (LV, ID): 0
GO annotation: NF-kappa B signaling pathway (Term: NF-kappa B signaling pathway) (LV, ID): 5.27
GO annotation: TNF signaling pathway (Term: TNF signaling pathway) (LV, ID): 12.1
GO annotation: activation of immune response (Term: immune response) (LV, ID): 0
GO annotation: activation of innate immune response (Term: innate immune response) (LV, ID): 0
GO annotation: acute inflammatory response (Term: inflammatory response) (LV, ID): 0
GO annotation: adaptive immune response (Term: adaptive immune response) (LV, ID): 0
GO annotation: apoptotic process (Term: apoptosis) (LV, ID): 0
GO annotation: apoptotic signaling pathway (Term: apoptosis) (LV, ID): 0
GO annotation: cell chemotaxis (Term: chemotaxis) (LV, ID): 4.51
GO annotation: cell death (Term: cell death) (LV, ID): 5.7
GO annotation: cell migration (Term: migration) (LV, ID): 0
GO annotation: cellular response to cytokine stimulus (Term: cytokine) (LV, ID): 3.28
GO annotation: cellular response to interferon-alpha (Term: IFN alpha) (LV, ID): 0
GO annotation: cellular response to stress (Term: stress) (LV, ID): 0
GO annotation: chemokine production (Term: chemokine) (LV, ID): 0
GO annotation: chemokine-mediated signaling pathway (Term: chemokine) (LV, ID): 0
GO annotation: chemotaxis (Term: chemotaxis) (LV, ID): 0
GO annotation: cytokine biosynthetic process (Term: cytokine) (LV, ID): 0
GO annotation: cytokine metabolic process (Term: cytokine) (LV, ID): 0
GO annotation: cytokine production (Term: cytokine) (LV, ID): 0
GO annotation: cytokine secretion (Term: cytokine) (LV, ID): 0
GO annotation: cytokine-mediated signaling pathway (Term: cytokine) (LV, ID): 0
GO annotation: death (Term: cell death) (LV, ID): 0
GO annotation: defense response (Term: defense response) (LV, ID): 5.76
GO annotation: defense response to Gram-positive bacterium (Term: defense response) (LV, ID): 0
GO annotation: defense response to bacterium (Term: defense response) (LV, ID): 0
GO annotation: defense response to other organism (Term: defense response) (LV, ID): 0
GO annotation: defense response to protozoan (Term: defense response) (LV, ID): 0
GO annotation: defense response to virus (Term: defense response) (LV, ID): 0
GO annotation: granulocyte chemotaxis (Term: chemotaxis) (LV, ID): 0
GO annotation: granulocyte migration (Term: migration) (LV, ID): 0
GO annotation: immune response (Term: immune response) (LV, ID): 0
GO annotation: immune response-activating signal transduction (Term: immune response) (LV, ID): 0
GO annotation: immune response-regulating signaling pathway (Term: immune response) (LV, ID): 0
GO annotation: inflammatory response (Term: inflammatory response) (LV, ID): 0
GO annotation: innate immune response (Term: innate immune response) (LV, ID): 0
GO annotation: innate immune response-activating signal transduction (Term: innate immune response) (LV, ID): 0
GO annotation: interferon-alpha production (Term: IFN alpha) (LV, ID): 0
GO annotation: intrinsic apoptotic signaling pathway (Term: apoptosis) (LV, ID): 0
GO annotation: leukocyte chemotaxis (Term: chemotaxis) (LV, ID): 0
GO annotation: leukocyte migration (Term: migration) (LV, ID): 0
GO annotation: leukocyte migration involved in inflammatory response (Term: inflammatory response) (LV, ID): 0
GO annotation: lymphocyte chemotaxis (Term: chemotaxis) (LV, ID): 0
GO annotation: lymphocyte migration (Term: migration) (LV, ID): 0
GO annotation: myeloid leukocyte migration (Term: migration) (LV, ID): 0
GO annotation: negative regulation of apoptotic process (Term: apoptosis) (LV, ID): 0
GO annotation: negative regulation of cell death (Term: cell death) (LV, ID): 0
GO annotation: negative regulation of cytokine production (Term: cytokine) (LV, ID): 0
GO annotation: negative regulation of defense response (Term: defense response) (LV, ID): 0
GO annotation: negative regulation of immune response (Term: immune response) (LV, ID): 0
GO annotation: negative regulation of innate immune response (Term: innate immune response) (LV, ID): 0
GO annotation: negative regulation of programmed cell death (Term: cell death) (LV, ID): 0
GO annotation: neutrophil chemotaxis (Term: chemotaxis) (LV, ID): 0
GO annotation: neutrophil migration (Term: migration) (LV, ID): 0
GO annotation: positive regulation of I-kappaB kinase/NF-kappaB signaling (Term: NF-kappa B signaling pathway) (LV, ID): 0
GO annotation: positive regulation of adaptive immune response (Term: adaptive immune response) (LV, ID): 0
GO annotation: positive regulation of apoptotic process (Term: apoptosis) (LV, ID): 3.18
GO annotation: positive regulation of cell death (Term: cell death) (LV, ID): 0
GO annotation: positive regulation of cell migration (Term: migration) (LV, ID): 0
GO annotation: positive regulation of chemokine production (Term: chemokine) (LV, ID): 0
GO annotation: positive regulation of chemotaxis (Term: chemotaxis) (LV, ID): 0
GO annotation: positive regulation of cytokine biosynthetic process (Term: cytokine) (LV, ID): 0
GO annotation: positive regulation of cytokine production (Term: cytokine) (LV, ID): 0
GO annotation: positive regulation of defense response (Term: defense response) (LV, ID): 0
GO annotation: positive regulation of immune response (Term: immune response) (LV, ID): 0
GO annotation: positive regulation of inflammatory response (Term: inflammatory response) (LV, ID): 0
GO annotation: positive regulation of innate immune response (Term: innate immune response) (LV, ID): 0
GO annotation: positive regulation of interferon-alpha production (Term: IFN alpha) (LV, ID): 0
GO annotation: positive regulation of leukocyte chemotaxis (Term: chemotaxis) (LV, ID): 0
GO annotation: positive regulation of leukocyte migration (Term: migration) (LV, ID): 0
GO annotation: positive regulation of programmed cell death (Term: cell death) (LV, ID): 3.05
GO annotation: positive regulation of response to wounding (Term: wounding) (LV, ID): 0
GO annotation: positive regulation of tumor necrosis factor superfamily cytokine (Term: cytokine) (LV, ID): 0
GO annotation: production of molecular mediator of immune response (Term: immune response) (LV, ID): 0
GO annotation: programmed cell death (Term: cell death) (LV, ID): 0
GO annotation: regulation of I-kappaB kinase/NF-kappaB signaling (Term: NF-kappa B signaling pathway) (LV, ID): 0
GO annotation: regulation of adaptive immune response (Term: adaptive immune response) (LV, ID): 0
GO annotation: regulation of apoptotic process (Term: apoptosis) (LV, ID): 0
GO annotation: regulation of apoptotic signaling pathway (Term: apoptosis) (LV, ID): 0
GO annotation: regulation of cell death (Term: cell death) (LV, ID): 0
GO annotation: regulation of cell migration (Term: migration) (LV, ID): 0
GO annotation: regulation of chemokine production (Term: chemokine) (LV, ID): 0
GO annotation: regulation of chemotaxis (Term: chemotaxis) (LV, ID): 0
GO annotation: regulation of cytokine biosynthetic process (Term: cytokine) (LV, ID): 0
GO annotation: regulation of cytokine production (Term: cytokine) (LV, ID): 0
GO annotation: regulation of defense response (Term: defense response) (LV, ID): 0
GO annotation: regulation of defense response to virus (Term: defense response) (LV, ID): 0
GO annotation: regulation of defense response to virus by host (Term: defense response) (LV, ID): 0
GO annotation: regulation of immune response (Term: immune response) (LV, ID): 0
GO annotation: regulation of inflammatory response (Term: inflammatory response) (LV, ID): 0
GO annotation: regulation of innate immune response (Term: innate immune response) (LV, ID): 0
GO annotation: regulation of interferon-alpha production (Term: IFN alpha) (LV, ID): 0
GO annotation: regulation of intrinsic apoptotic signaling pathway (Term: apoptosis) (LV, ID): 0
GO annotation: regulation of leukocyte chemotaxis (Term: chemotaxis) (LV, ID): 0
GO annotation: regulation of leukocyte migration (Term: migration) (LV, ID): 0
GO annotation: regulation of programmed cell death (Term: cell death) (LV, ID): 0
GO annotation: regulation of response to stress (Term: stress) (LV, ID): 0
GO annotation: regulation of response to wounding (Term: wounding) (LV, ID): 0
GO annotation: regulation of tumor necrosis factor superfamily cytokine production (Term: cytokine) (LV, ID): 0
GO annotation: response to cytokine (Term: cytokine) (LV, ID): 8.12
GO annotation: response to interferon-alpha (Term: IFN alpha) (LV, ID): 0
GO annotation: response to stress (Term: stress) (LV, ID): 9.13
GO annotation: response to wounding (Term: wounding) (LV, ID): 0
GO annotation: taxis (Term: chemotaxis) (LV, ID): 0
GO annotation: tumor necrosis factor superfamily cytokine production (Term: cytokine) (LV, ID): 0
IFN beta: cellular response to interferon-beta (LV, ID): 0
IFN beta: interferon-beta production (LV, ID): 0
IFN beta: positive regulation of interferon-beta production (LV, ID): 0
IFN beta: regulation of interferon-beta production (LV, ID): 0
IFN beta: response to interferon-beta (LV, ID): 0
IFN gamma: cellular response to interferon-gamma (LV, ID): 0
IFN gamma: interferon-gamma production (LV, ID): 0
IFN gamma: regulation of interferon-gamma production (LV, ID): 0
IFN gamma: response to interferon-gamma (LV, ID): 0
interleukin-6: interleukin-6 production (LV, ID): 0
interleukin-6: positive regulation of interleukin-6 production (LV, ID): 0
interleukin-6: regulation of interleukin-6 production (LV, ID): 0
interleukin-12: interleukin-12 production (LV, ID): 0
interleukin-12: positive regulation of interleukin-12 production (LV, ID): 0
interleukin-12: regulation of interleukin-12 production (LV, ID): 0
GO annotation: adaptive immune response based on somatic recombination of immune receptors built from immunoglobulin superfamily domains (Term: adaptive immune response) (mouse, in vivo): 0
GO annotation: regulation of adaptive immune response based on somatic recombination of immune receptors built from immunoglobulin superfamily domains (Term: adaptive immune response) (mouse, in vivo): 0
